From US20240027428A1, “METHOD FOR BUILDING CO-CULTURE MODEL FOR CACO-2/RAW-264.7 CELLS INDUCED BY LIPOPOLYSACCHARIDES AND APPLICATION OF CO-CULTURE MODEL” (ZHEJIANG UNIVERSITY OF TECHNOLOGY, priority 2022, published 2024)

Tests used:
Caco-2 cells [1] = assay: Transport tests for Lucifer yellow across Caco-2 monolayer in Transwell; type: in vitro ADME; settings: 20 μg/mL Lucifer yellow, AP to BL, Caco-2 cultured 21 days
Protocol: Drawing of a standard curve for Lucifer yellow: 0.005 μg/mL, 0.01 μg/mL, 0.025 μg/mL, 0.05 μg/mL, 0.1 μg/mL, and 0.25 μg/mL of standard solutions for Lucifer yellow were prepared, the fluorescence intensities (an excitation wavelength: 427 nm, and an emission wavelength: 536 nm) of the standard solutions for Lucifer yellow were measured with a fluorescence spectrophotometer, and linear regression was performed with the fluorescence intensity as an ordinate and the concentration ([…]) as an abscissa. A standard curve was drawn.
Transport tests for Lucifer yellow: Caco-2 cells grew to 21 days in a Transwell, and then a culture medium was sucked and discarded. A preheated HBSS was added to both an AP side and a BL side for cleaning twice and was sucked and discarded, and then a preheated HBSS was added to perform culture under the conditions of 37° C. and 5% CO2 for 20 min. […] Under the condition of Ex=427 nm and Em=536 nm, the fluorescence intensity was measured according to a standard curve and a transport formula. A concentration and permeability coefficient of a transport solution for the Lucifer yellow CH on the BL side were calculated. […]

Caco-2 cells [2] = assay: Effect of an endocytosis inhibitor on uptake/transport in a co-culture model; type: in vitro ADME; settings: β-CD, chlorpromazine (CPZ), cytochalasin D (P>0.05)
Protocol: (§1) Cell co-culture: Caco-2 cells were inoculated onto a 6-well Transwell plate at a density of 1×10^5 cells/well. A culture medium was changed once every 1-2 days in 21 consecutive days. RAW-264.7 cells were inoculated onto a side wall of a substrate at a density of 1×10^5 cells/well, and were cultured in 5% carbon dioxide at 37° C. for 48 h, to promote obvious adhesion of the cells to the side wall of the substrate. After 48 h, the culture medium was replaced with a serum-free DMEM. It was intended to evaluate the absorption of C3G liposomes in a co-culture model.
Effect of an endocytosis inhibitor on uptake in a co-culture model: 0.2 mg/mL of a C3G and C3G NL solution was prepared with an HBSS, 0.1 ml of a sample solution was added on an AP side, 0.6 mL of an HBSS was added on a BL side, an MEM, 10 mmol/L ([…]) of β-CD,10 μg/mL of chlorpromazine, 2 μmol/L (1 μg/ml) of cytochalasin D (0.1 ml) were added and sucked out after 30 min, cells were cultured in an environment at 37° C. for 1 h, three wells were provided, a culture medium was discarded after culture, and uptake was stopped using an HBSS. The content of a sample was determined with HPLC, and Papp was calculated.

Caco-2 cells [3] = assay: Effect of temperature on uptake in a co-culture model; type: in vitro ADME; settings: 4° C. to 37° C. (P<0.0001)
Protocol: as §1
Effect of temperature on uptake in a co-culture model: 0.2 mg/mL of a C3G and C3G NL solution was prepared with an HBSS, 0.1 ml of a sample solution was added on an AP side, 0.6 mL of an HBSS was added on an BL side, cells were cultured in environments at 37° C. and 4° C. for 2 h, three wells were provided at each temperature, a culture medium was discarded after culture, and uptake was stopped using an HBSS. The content of a sample on the BL side was determined with HPLC.

Caco-2 cells [4] = assay: Effect of concentration on transport in a co-culture model; type: in vitro ADME; settings: at 1 h; not saturated
Protocol: as §1
Effect of concentration on uptake in a co-culture model: 0.02 mg/ml, 0.04 mg/ml, […], 0.08 mg/ml, and 0.1 mg/ml of C3G and C3G NL solutions were prepared, transport from an AP side to a BL side and transport from the BL side to the AP side were evaluated, 0.1 ml of a sample was added on the AP side, 0.6 ml of a sample was added on the BL side, three wells were provided, […], a culture medium was discarded after culture, and uptake was stopped using an HBSS. The content of the sample on the BL side was determined with HPLC.

[5] = tested on: inflammatory factors IL-6, IL-8, IL-1β, and TNF-α; assay: Content of inflammatory factors in LPS-induced Caco-2/RAW-264.7 co-culture model (ELISA); type: cell-based
Protocol: as §1
Determination of the content of inflammatory factors in a co-culture model: levels of inflammatory factors IL-6, IL-8, IL-1β, and TNF-α in a supernatant of Caco-2 cells in an LPS-induced co-culture model were determined with an ELISA kit.

Caco-2 cells [6] = assay: CCK-8 cytotoxicity test, viability of Caco-2 cells; type: cell-based; settings: Caco-2, 24 h, 0.2 mg/mL and below (P>0.05)
Protocol: Cytotoxicity tests: according to manufacturer's instructions, cell viability was determined with a CCK-8 (Nanjing Jiancheng Biological Engineering Research Institute, Nanjing, China). In short, Caco-2 cells were treated with [MUT] liposomes at concentrations of 0.1 mg/mL, 0.2 mg/mL, 0.3 mg/mL, and 0.4 mg/mL, incubated for 24 h, then washed with PBS once, and added with a CCK-8 solution. Incubation was performed at 37° C. for 4 h, and an optical density at 450 nm was determined. […] NL and [MUT] on the viability of Caco-2 cells were inspected with a CCK-8 method. The Caco-2 cells were inoculated onto a 96-well plate having each well of 100 μL at a density of 1×10^5 cells/mL, and 200 μL of PBS was added to a peripheral well of the 96-well plate, to provide a humidity environment. […] After incubation for 24 h, 20 μL of a CCK-8 solution was added to each well, incubation was performed in an incubator at 37° C. for 1 h, and then an optical density (OD) at a wavelength of 490 nm was detected with a microplate reader and was calculated according to the following formula: Cell viability (%)=ODtreatment well/ODcontrol well×100% where the ODtreatment well represented an optical density of cells after addition of drugs, and the ODcontrol well represented an optical density of cells in a blank control.

Caco-2 cells [7] = assay: Effect of time on uptake in a co-culture model; type: in vitro ADME; settings: 0.2 mg/mL, 0-6 h
Protocol: as §1
Effect of time on uptake in a co-culture model: 0.2 mg/mL of a C3G and C3G NL solution was prepared with a DMEM, 0.1 ml of a sample solution was added on an AP side, 0.6 mL of a DMEM was added on an BL side, culture was performed in an incubator at 37° C. for 1 h, 2 h, 3 h, 4 h, 5 h, and 6 h, three wells were provided at each time point, a drug-containing buffer solution was discarded after incubation, precooled PBS was added to stop cellular uptake, and cell monolayers were quickly washed for three times. […] A cell suspension was dissolved with methanol and centrifuged at 15,000 rpm for 20 min, then a supernatant was taken, and the content of C3G was determined with HPLC.

Compound | Papp (apparent permeability coefficient) (Caco-2 cells [1]) [nm/s] | transport amounts after addition of endocytosis inhibitor compared with blank group (Caco-2 cells [2]) | uptake amounts in Caco-2 cells with increase of temperature (Caco-2 cells [3]) | transport amounts in Caco-2 cells with concentration (Caco-2 cells [4]) | production of inflammatory factors after pretreatment [5] | change of cell viability compared with blank group (Caco-2 cells [6]) | time of maximum uptake amount in Caco-2 cells (Caco-2 cells [7]) [h]
Lucifer yellow | 0.303 |  |  |  |  |  | 
OC[C@H]1O[C@@H](Oc2cc3c(O)cc(O)cc3[o+]c2-c2ccc(O)c(O)c2)[C@H](O)[C@@H](O)[C@@H]1O [C3G, Cyanidin-3-glucoside] |  | no significant changes | increased significantly | increased with the increase of concentration | reduced in a dose-dependent manner | did not change significantly | 2
